The text below walks through data of patent US10758596B2, “Compositions and methods to prevent and treat biofilms” (ZIOLASE, LLC, priority 2011, dated 2020).

In brackets after ≈: the same amount, converted by molar mass. Where two headings read alike, the source gives them in different places.

Common to all, as to format: cell-based
Series [1] concerns S. aureus ATCC 25923. As to the kind of experiment: Biofilm mass formation (Crystal Violet staining), S. aureus ATCC 25923 biofilm. Particulars: antibiotic alone 1/4 MIC; 24 hour grown biofilm. How it is done:
(§1) Various parameters that were evaluated in each part of the analysis include: 1) Biofilm mass formation (% inhibition—by Crystal Violet staining method); 2) Bacterial cell viability (% inhibition—by Resazurin assay); and 3) Bacterial cell growth (by Colony Counting—CFU/ml plating).
(§2) There now follows greater details about tests that show the effect of Trehalase in gram-positive bacteria (MRSA and MSSA S. aureus). […] It inhibited viability of bacterial cells in the biofilm (about 84%, about 81%, and about 63% correspondingly by Resazurin assay), and reduced the bacterial cell growth in the 24 hour biofilm (about 1.5 log by CFU/ml compared to the Control).
(§3) The experimental design for the first strain on the early biofilm included: • Strain: S. aureus ATCC25923 • Temperature: 35±2° C. • Incubation Conditions: Static • Time Points: 24 hours • Treatment: (added to well containing a suspension of S. aureus ATCC25923 ˜10^7 CFU/ml) • Solvent 1: 50% glycerol containing 1% Triton™ X-100 and 25 mM potassium phosphate, pH 6.5 • Solvent 2: 25 mM potassium phosphate, pH 6.5 • SIGMA Trehalase: 0.092 UI • Dialyzed Trehalase: 0.092 UI • Parameters Assessed: • Biofilm mass formation (staining with crystal violet 0.06%) • Cells viability (incubation with resazurin) • Cell growth by colony counting (CFU/mL) […]

The test system of series [2] is S. aureus ATCC 25923. As to the kind of experiment: Bacterial cell viability (Resazurin assay), S. aureus ATCC 25923. The protocol: as §1, §2
(§4) The experimental design for the first strain on the early biofilm included: • Strain: S. aureus ATCC25923 • Temperature: 35±2° C. • Incubation Conditions: Static • Time Points: 24 hours • Treatment: (added to well containing a suspension of S. aureus ATCC25923 ˜10^7 CFU/ml) • Solvent 1: 50% glycerol containing 1% Triton™ X-100 and 25 mM potassium phosphate, pH 6.5 • Solvent 2: 25 mM potassium phosphate, pH 6.5 • SIGMA Trehalase: 0.092 UI • Dialyzed Trehalase: 0.092 UI • Parameters Assessed: • Biofilm mass formation (staining with crystal violet 0.06%) • Cells viability (incubation with resazurin) • Cell growth by colony counting (CFU/mL)
as §3, with “preformed” for “early”, “Points: Preformed biofilm for 24 hours,” for “Points:”, “hours of further growth” for “hours”
On the technique in general: The colour change of resazurin is a common sign of viable cells or microbes.

Series [3] relates to S. aureus ATCC 25923. As to the kind of experiment: Bacterial cell growth by colony counting (CFU/mL), S. aureus ATCC 25923 biofilm and planktonic cells. Particulars: antibiotic alone 1/4 MIC; 24 hour grown biofilm. The protocol:
as §1, §2, §3

The subject of series [4] is S. aureus ATCC33591. As to the kind of experiment: Biofilm mass formation, S. aureus ATCC33591 24 hour grown biofilm. Particulars: Trehalase 0.092 UI/well, antibiotic 1/4 MIC; early (24 hour grown) biofilm. How it is done:
as §1

For series [5], the system named is S. aureus ATCC 25923. As to the kind of experiment: MIC by CLSI guidelines, S. aureus ATCC 25923. An excerpt: There is strong reproducibility of the data generated with S. aureus ATCC25923 (similar activity among different experiments).
The subject of series [6] is S. aureus ATCC33591. As to the kind of experiment: MIC, S. aureus ATCC33591. An excerpt: Neither Gentamicin (GENT), nor Vancomycin (VAN) in sub-MICc doses (¼/MIC) triggered biofilm induction response.
The next series deals with S. aureus 3-Belgium. As to the kind of experiment: MIC, S. aureus 3-Belgium.
Series [7] has as its system S. aureus strains (MSSA Oxford, MSSA ATCC 35556, MRSA ATCC 25923). As to the kind of experiment: MIC in broth (CLSI) in the presence and absence of Trehalase, selected S. aureus strains. Particulars: Trehalase 0.092 UI, 24 hours. The protocol: There was testing of Trehalase on Clinical Isolates (S. aureus strains: Oxford, ATCC35556, and ATCC 25923 as the reference strain) at a time-point: 24 hours of biofilm growth.
The MIC determination with selected S. aureus strains proceeded as a first step. The materials and methods included:
S. aureus strains: Oxford; ATCC35556 and ATCC25923 (as reference strain)
In vitro assay: MIC in broth (according to CLSI guidelines)
Antibiotic concentration: two-fold series dilution from 16 to 0.0078 μg/mL
Incubation: T 37° C.; static condition

In series [8] the test system is P. aeruginosa PAO1. As to the kind of experiment: Biofilm mass formation (Crystal Violet staining), P. aeruginosa PAO1 biofilm. Particulars: antibiotic alone 1/4 MIC added to 24 hour preformed biofilm.
The test system of series [9] is P. aeruginosa PAO1. As to the kind of experiment: Bacterial cell viability (Resazurin assay), P. aeruginosa PAO1 biofilm. The protocol: as §1
The “U” corresponds to the International Units for the enzyme in each testing well. This dose was further used in subsequent experiments. […] In an old stage (72 hour of growth), the biofilm formation was still inhibited by about 50.0%. […]
as §4, with “second” for “first”, “preformed” for “early”, “P. aeruginosa PAO1” for “S. aureus ATCC25923”, “Points: Preformed biofilm for 24 hours,” for “Points:”, “hours of further growth” for “hours”

Where [10] appears, read: GENT/VAN experiment, Trehalase 0.092 UI/well, antibiotic 1/4 MIC, 24 hour grown biofilm.

The MIC is the lowest concentration found to suppress growth. Turning to Gentamicin, the “increased biofilm mass (biofilm induction response, BIR) compared to Negative Control” value in the series with S. aureus ATCC 25923 [1] is given as “two-fold”. The “inhibition of biofilm cell viability (Resazurin assay)” value (from here on “inhibition of biofilm cell viability”) in the series with S. aureus ATCC 25923 [2] (setting [10]) was “no effect”. The “effect on cell growth” value in the series on S. aureus ATCC 25923 [3] is given as “no effect”. Moreover, the “inhibition / reduction of biofilm mass formation compared to Control” value with S. aureus ATCC33591 [4] is “about 10%”. The MIC was found to be 2 µg/mL against S. aureus ATCC 25923 [5], 2.0 µg/mL with S. aureus ATCC33591 [6] and 32.0 µg/mL in the series on S. aureus 3-Belgium. For the same compound, the “MIC value reduction on addition of Trehalase” value in series [7] (clinical isolates) is “up to 16 fold”; in [7] (reference isolates) it was at most 33 fold.

With `CN[C@H](CC(C)C)C(=O)N[C@H]1C(=O)N[C@@H](CC(N)=O)C(=O)N[C@H]2C(=O)N[C@H]3C(=O)N[C@H](C(=O)N[C@H](C(=O)O)c4cc(O)cc(O)c4-c4cc3ccc4O)[C@H](O)c3ccc(c(Cl)c3)Oc3cc2cc(c3O[C@@H]2O[C@H](CO)[C@@H](O)[C@H](O)[C@H]2O[C@H]2C[C@](C)(N)[C@H](O)[C@H](C)O2)Oc2ccc(cc2Cl)[C@H]1O` [Vancomycin], the “increased biofilm mass (biofilm induction response, BIR) compared to Negative Control” value in the series with S. aureus ATCC 25923 [1] was 1.8 fold. For the same compound, in the series with S. aureus ATCC 25923 [2] (setting [10]), the “inhibition of biofilm cell viability” value is given as “no effect”. In addition, in the series with S. aureus ATCC 25923 [3], the “effect on cell growth” value is given as “no effect”. The “inhibition / reduction of biofilm mass formation compared to Control” value in the series with S. aureus ATCC33591 [4] was “about 20%”. The MIC in the series with S. aureus ATCC 25923 [5] was 2.0 µg/mL (≈ 1.38 µM); in the series with S. aureus ATCC33591 [6] (Staphylococcus aureus, ATCC33591) it was 2 µg/mL (≈ 1.38 µM); in the series with S. aureus 3-Belgium (Staphylococcus aureus, 3BELGIUM), 2 µg/mL (≈ 1.38 µM). Also, in series [7], the “effect of addition of Trehalase on MIC” value is recorded as “No significant effect”.

For `CC(C)(O/N=C(\C(=O)N[C@@H]1C(=O)N2C(C(=O)[O-])=C(C[n+]3ccccc3)CS[C@H]12)c1csc(N)n1)C(=O)O` [Ceftazidime], in the series on P. aeruginosa PAO1 [8], the “increase of biofilm mass formation (BIR) compared to Control level” value is “about 1.6”. Moreover, the “inhibition of cell viability (Resazurin assay)” value in the series with P. aeruginosa PAO1 [9] (Pseudomonas aeruginosa, 48 h) is recorded as 25-50%. Further, in the series with S. aureus ATCC 25923 [2] (Staphylococcus aureus, 24 h), the “inhibition of biofilm cell viability” value was “about 13%”. Further, the MIC in the series with S. aureus ATCC 25923 [5] (Staphylococcus aureus, ATCC25923, read-out: MIC) worked out at 8 µg/mL (≈ 14.6 µM).

As for `NC[C@H]1O[C@H](O[C@H]2[C@H](O)[C@@H](O[C@H]3O[C@H](CO)[C@@H](O)[C@H](N)[C@H]3O)[C@H](N)C[C@@H]2N)[C@H](N)C[C@@H]1O` [Tobramycin], in the series with P. aeruginosa PAO1 [8], the “increase of biofilm mass formation (BIR) compared to Control level” value is “about 1.4”. Moreover, the “inhibition of cell viability (Resazurin assay)” value in the series with P. aeruginosa PAO1 [9] (added at beginning, antibiotic 1/4 MIC, 24 hour grown biofilm) is on record as “about 25%”; in the series on P. aeruginosa PAO1 [9] (added at beginning, sub-MIC antibiotic, 48 hour grown biofilm), “about 25%”.
